# Data: PubChem BioAssay (NCI)
#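 Assay format: 96-well plates, 48-hour exposure. GI50: concentration for 50% inhibition of growth. TGI is the concentration that stops growth completely.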
# How the values were obtained:
# Assay in all cases: DTP human tumour cell line panel, 48 h
# HOP-62 NSCLC = test system: HOP-62 NSCLC
# RXF 393 renal = test system: RXF 393 renal
# IGROV1 ovarian = test system: IGROV1 ovarian
# MOLT-4 leukemia = test system: MOLT-4 leukemia
# NCI/ADR-RES ovarian = test system: NCI/ADR-RES ovarian
# MCF7 breast = test system: MCF7 breast
# T-47D breast = test system: T-47D breast
# SK-MEL-28 melanoma = test system: SK-MEL-28 melanoma
# OVCAR-3 ovarian = test system: OVCAR-3 ovarian
# UO-31 renal = test system: UO-31 renal
SMILES,GI50 (HOP-62 NSCLC),TGI (HOP-62 NSCLC),GI50 (RXF 393 renal),TGI (RXF 393 renal),GI50 (IGROV1 ovarian),TGI (IGROV1 ovarian),GI50 (MOLT-4 leukemia),TGI (MOLT-4 leukemia),GI50 (NCI/ADR-RES ovarian),TGI (NCI/ADR-RES ovarian),GI50 (MCF7 breast),TGI (MCF7 breast),GI50 (T-47D breast),TGI (T-47D breast),GI50 (SK-MEL-28 melanoma),TGI (SK-MEL-28 melanoma),GI50 (OVCAR-3 ovarian),TGI (OVCAR-3 ovarian),GI50 (UO-31 renal),TGI (UO-31 renal)
O=C(CCCCCCNC(=O)c1cnc(N(c2ccccc2)c2ccccc2)nc1)NO,3.46 µM,28.1 µM,0.796 µM,3.85 µM,3.2 µM,16.6 µM,2.13 µM,> 100 µM,14.4 µM,> 96.8 µM,2.99 µM,> 67.1 µM,0.907 µM,5.83 µM,3.41 µM,33.3 µM,2.71 µM,15.3 µM,4.63 µM,36.6 µM
C=C(CN1C(=O)CN(C)C1=O)c1ccc(C(=O)Nc2ccccc2N)cc1,17.6 µM,> 100 µM,20.1 µM,67.2 µM,12.3 µM,> 100 µM,7.29 µM,63.3 µM,12.5 µM,> 100 µM,12.7 µM,> 100 µM,2.55 µM,22.2 µM,15.9 µM,54.8 µM,24.8 µM,> 100 µM,11.8 µM,> 100 µM
CC(=O)NC1C(OC[C@@H](CC(=O)N[C@@H](CC(=O)O)CC(=O)N[C@H](CC(=O)N[C@@H](CCCN)CC(=O)N[C@@H](CCCN)CC(=O)N[C@H](CC(N)=O)C(C)C)C(C)C)NC(=O)C[C@@H](N)C(C)C)OC(CO)C(O)C1O (stereo not given in full),> 100 µM,> 100 µM,> 100 µM,> 100 µM,> 100 µM,> 100 µM,> 100 µM,> 100 µM,> 100 µM,> 100 µM,> 100 µM,> 100 µM,> 100 µM,> 100 µM,> 100 µM,> 100 µM,> 100 µM,> 100 µM,> 100 µM,> 100 µM
C=C1C(=O)O[C@H]2[C@H]1CC/C(COC(=O)CSCSCC(=O)OC/C1=C/CC[C@@]3(C)O[C@H]3[C@H]3OC(=O)C(=C)[C@@H]3CC1)=C\CC[C@@]1(C)O[C@@H]21,2.59 µM,8.38 µM,1.23 µM,2.83 µM,1.78 µM,4.46 µM,0.505 µM,3.09 µM,3.25 µM,12.3 µM,0.642 µM,2.25 µM,1.53 µM,3.7 µM,1.63 µM,3.19 µM,1.2 µM,2.54 µM,1.27 µM,2.56 µM
CCCCON(OC(=O)c1ccc2ccccc2c1)C(=O)c1ccccc1,> 100 µM,> 100 µM,> 100 µM,> 100 µM,44.1 µM,> 100 µM,29.2 µM,68.4 µM,> 100 µM,> 100 µM,60.1 µM,> 100 µM,> 100 µM,> 100 µM,> 100 µM,> 100 µM,> 100 µM,> 100 µM,53.1 µM,> 100 µM
O=c1[nH]nnc2c1ncn2C1OC(CO)C(O)C1O (stereo not given),10.7 µM,> 100 µM,14.1 µM,> 100 µM,2.96 µM,> 100 µM,2.07 µM,36 µM,7.74 µM,> 100 µM,17.3 µM,> 100 µM,38.8 µM,> 100 µM,68.3 µM,> 100 µM,7.75 µM,> 100 µM,3.18 µM,> 100 µM
OC(Cc1ccncc1)C(Cl)(Cl)Cl (stereo not given),> 100 µM,> 100 µM,> 100 µM,> 100 µM,,,0.0988 µM,> 100 µM,> 100 µM,> 100 µM,> 100 µM,> 100 µM,> 100 µM,> 100 µM,> 100 µM,> 100 µM,17.4 µM,> 100 µM,> 100 µM,> 100 µM
C=C(C)[C@@H]1CC[C@]2(C)CC[C@]3(C)[C@H](CC[C@@H]4[C@@]5(C)CC[C@H](O)C(C)(C)[C@@H]5CC[C@]43C)[C@@H]12,,> 100 µM,,28.7 µM,,> 100 µM,,> 70.3 µM,,> 100 µM,,55.2 µM,,> 100 µM,,> 100 µM,,> 100 µM,,> 72.1 µM
COc1cc(C(O)CCBr)c(OC)cc1C (stereo not given),,> 93.5 µM,,> 100 µM,,> 100 µM,,> 100 µM,,> 57.6 µM,,54.7 µM,,> 100 µM,,> 100 µM,,44.1 µM,,> 100 µM
O.O.[NH-]C1(C(=O)O)CCCC1.[NH-]C1(C(=O)O)CCCC1.[Ni+2],,> 100 µM,,> 100 µM,,> 100 µM,,> 100 µM,,> 100 µM,,> 100 µM,> 100 µM,> 100 µM,,> 100 µM,,> 100 µM,,> 100 µM
CN(/N=C/c1cccc2cccnc12)c1ccc([N+](=O)[O-])cc1[N+](=O)[O-],,22.9 µM,,40.9 µM,,70.8 µM,,> 100 µM,,> 100 µM,,> 100 µM,,85.4 µM,,> 100 µM,,39.8 µM,,90.1 µM
CCOC(=O)Nc1ccc2c(c1)/C(=N\NC(N)=S)c1ccccc1-2,4.9 µM,22.6 µM,1.93 µM,4.6 µM,5.88 µM,28.1 µM,2.83 µM,13.2 µM,2.75 µM,9.4 µM,3.15 µM,23.8 µM,2.48 µM,9.84 µM,4.58 µM,17.7 µM,4.38 µM,27.8 µM,3.97 µM,14.2 µM
COc1cccc(N2CCN(CC(=O)N3CCN(c4nnc(-c5ccc(Cl)cc5)c(-c5ccc(Cl)cc5)n4)CC3)CC2)c1,32.1 µM,> 100 µM,28.7 µM,> 100 µM,11.1 µM,84.7 µM,3.1 µM,> 100 µM,19.9 µM,> 100 µM,5.14 µM,61.3 µM,3.73 µM,47.6 µM,> 100 µM,> 100 µM,36.9 µM,> 100 µM,3.63 µM,> 100 µM
N=C1C(c2nc3ccccc3s2)=C(O)CN1c1ccc(F)c(Cl)c1,18.1 µM,36.2 µM,7.38 µM,33.9 µM,19.4 µM,58.3 µM,19.6 µM,> 100 µM,26.9 µM,80.6 µM,40.3 µM,> 100 µM,72.5 µM,> 100 µM,33.3 µM,> 100 µM,17.7 µM,60.4 µM,14.7 µM,35.8 µM
COc1ccc(-c2nn(-c3cccc(Cl)c3)cc2-c2cc(-c3cccs3)[nH]c(=S)n2)cc1,7.14 µM,22.1 µM,3.76 µM,19.5 µM,3.61 µM,15.3 µM,3.03 µM,25.2 µM,4.77 µM,41.8 µM,3.02 µM,33.4 µM,4.16 µM,34.6 µM,3.93 µM,15.7 µM,3.04 µM,9.42 µM,2.82 µM,26.5 µM
CC[C@@H]1c2c(C#N)ncn2-c2cnc(Nc3ccc(C(=O)NC4CCN(C5CCN(CC6CC6)CC5)CC4)cc3OC)nc2N1C1CCCC1,0.0403 µM,1.79 µM,0.0462 µM,1.8 µM,0.0358 µM,1.36 µM,0.037 µM,1.51 µM,1.29 µM,2.8 µM,0.00514 µM,1.2 µM,1.3 µM,2.88 µM,0.127 µM,1.75 µM,0.0401 µM,1.63 µM,1.36 µM,2.69 µM
O=c1[nH]c(=O)c2cn[nH]c2[nH]1,> 100 µM,> 100 µM,> 100 µM,> 100 µM,> 100 µM,> 100 µM,> 100 µM,> 100 µM,> 100 µM,> 100 µM,> 100 µM,> 100 µM,> 100 µM,> 100 µM,> 100 µM,> 100 µM,> 100 µM,> 100 µM,> 100 µM,> 100 µM
CSC(=Nc1nnc(-c2ccc([N+](=O)[O-])cc2)s1)SC,,53.3 µM,,45.4 µM,,> 91.6 µM,,> 100 µM,,> 100 µM,,> 100 µM,,> 100 µM,,> 100 µM,,> 89.7 µM,,71.5 µM
COc1ccc(-c2cc3c(c4cc(OC)ccc24)C(=O)OC3=O)cc1,,> 100 µM,,> 100 µM,,> 100 µM,,> 100 µM,,> 100 µM,,> 100 µM,,> 100 µM,,> 100 µM,,> 100 µM,,> 100 µM
CCN(Cc1cc(Nc2nc(C)cn3c(-c4cn[nH]c4)cnc23)sn1)C(C)(C)CO,0.0411 µM,0.688 µM,< 0.012 µM,0.0907 µM,0.0257 µM,12.9 µM,0.0465 µM,12.4 µM,1.12 µM,> 44.7 µM,0.026 µM,2.01 µM,0.0689 µM,18.5 µM,1.41 µM,14.7 µM,0.0481 µM,2.68 µM,0.0428 µM,10.1 µM
COC12C=C/C(=C(/C(=O)OCc3cncnc3)C(=O)CCCCCCCCC3(OC)C=C/C(=C(/C(=O)OCc4cncnc4)C(=O)CCCCCCCC1)O3)O2,0.624 µM,2.97 µM,0.199 µM,0.714 µM,0.589 µM,1.96 µM,,,0.609 µM,> 50 µM,0.209 µM,2.32 µM,0.232 µM,> 50 µM,0.325 µM,1.65 µM,0.195 µM,1.07 µM,0.542 µM,1.28 µM
COc1ccc2[nH]cc(-c3ccc(-c4c[nH]c5ccc(OC)cc45)s3)c2c1,4.67 µM,10.5 µM,3.51 µM,13.6 µM,8.72 µM,51 µM,1.16 µM,6.95 µM,3.78 µM,19.5 µM,4.72 µM,27 µM,11.1 µM,41.5 µM,12.6 µM,> 50.2 µM,10.7 µM,27.5 µM,2.9 µM,13.5 µM
C[C@]12C[C@H](CCCCCCNCCOC(=O)NCCCc3ccc(N(CCCl)CCCl)cc3)C3=C4CCC(=O)C=C4CCC3C1CC[C@@H]2O (stereo not given in full),2.2 µM,10.4 µM,0.294 µM,1.21 µM,0.334 µM,2.11 µM,0.34 µM,1.56 µM,14 µM,36.2 µM,0.3 µM,3.05 µM,1.17 µM,4.5 µM,,,,,1.27 µM,2.98 µM
CC1(C)C2CCC13C(=O)C1OC3(C2)C2C(=O)c3cc4ccccc4cc3C(=O)C12 (stereo not given),7.64 µM,45.3 µM,8.4 µM,46.2 µM,,,1.76 µM,19.2 µM,2.71 µM,15.9 µM,6.17 µM,> 100 µM,4.68 µM,50.5 µM,8.36 µM,> 100 µM,,,19.6 µM,> 100 µM
ClCc1cccc2c(CCl)cccc12,3.24 µM,10.2 µM,3.33 µM,18 µM,,,3.98 µM,> 100 µM,2.58 µM,12.1 µM,0.871 µM,7.54 µM,1.81 µM,10.5 µM,10.9 µM,24.4 µM,1.76 µM,3.83 µM,2.2 µM,8.87 µM
O=C(c1ccccc1)c1ccccc1-c1ccccc1,5.38 µM,> 100 µM,3.17 µM,22.7 µM,3.32 µM,> 100 µM,,,1 µM,8.02 µM,2.97 µM,> 100 µM,6.08 µM,> 100 µM,7.52 µM,> 100 µM,1.72 µM,4.55 µM,6.99 µM,98.1 µM
